The values that follow come from patent US9284559B2, “Multivalent aptamer complexes” (Wake Forest University Health Sciences, priority 2009, dated 2016).

One data set has as its system PC3 xenografts. As to the kind of experiment: In vivo xenograft study of anti-tumor activity. Particulars: for tumor growth relative to control: i.v. 1× per week via jugular vein catheter, 5FU 100 mg/kg, first 44 days, FdUMP[10] effect from day 18. From the text:
FIG. 7. Plot of tumor size versus time for PC3 xenografts in nude mice. Data are shown for four treatment groups (n=8 in each group): 1) control 1; 2) FdUMP[10]; 3) control 2; 4) 5-FU. The FdUMP[10] and 5FU studies were done consecutively (rather than concurrently) so that two control groups were required.
The principal strategy that will be used to render the dimeric aptamer complexes we have developed selectively cytotoxic towards targeted cancer cells is to include cytotoxic nucleotides, such as FdU, in the structure. While other modalities may also be included to render these modified aptamers cytotoxic to cancer cells (e.g. siRNA, toxins), there is considerable merit to the concept that dimeric aptamer complexes are the best method for delivery of FdU and other cytotoxic nucleotide analogs in the future. In principle, delivery of cytotoxic nucleotide analogs in aptamers increases the selectivity and potency of these drugs while minimizing systemic toxicities. In this regard, it is important to consider the advantages obtained by inclusion of FdU in single-stranded DNA (e.g. FdUMP[10]) relative to delivery as the nucleobase (5FU). We have shown that not only does delivery of fluoropyrimidine (FP) as FdUMP[10] increase efficacy and decrease toxicity, it also changes the spectrum of malignancies that are responsive to FP treatment. […] PSMA, the target for the dimeric aptamer complexes being developed by us, is frequently expressed in advanced prostate cancer. PSMA is also frequently expressed in tumor neovasculature. As FPs are widely used for treatment of solid tumors, the dimeric aptamer complexes developed in these studies should provide an improved mechanism for tumor-specific delivery of FPs.
We recently completed an in vivo xenograft study evaluating the anti-tumor activity of FdUMP[10] and 5FU towards PC3 xenografts (FIG. 8). […] FdUMP[10] (150 mg/kg) was injected i.v. 1× per week via jugular vein catheter. 5FU (100 mg/kg) was also injected 1× per week by the same route. […] FdUMP[10] was well-tolerated at the administered dose. A mixed effects model was fit to examine whether there were differences between groups over the first 44 days after administration of FdUMP[10] or 5FU. In this model, individual animals were considered as random effects and the group and day variables were considered as fixed effects. […] We expect that with dimeric aptamer complexes including FdU, we will further increase the selectivity for malignant cells and further reduce systemic toxicities. Thus, dimeric aptamer complexes may ultimately become the preferred method for administering fluoropyrimidine chemotherapy in the era of molecularly targeted cancer therapeutics.

The test system of data set [1] is PC3 cells. As to the kind of experiment: Relative cytotoxicity of activated FPs in PC3 versus C4-2 cells. It counts as cell-based. The following applies: PC3 mutant p53, C4-2 wtp53; ongoing studies.
The test system of data set [2] is C4-2 cells. As to the kind of experiment: Fluorescence microscopy of fluorescently-labeled aptamer, dimeric complex or mAb on live cells. It counts as cell-based. As to the method: (§1) FIG. 1. Fluorescence microscopy images of the PSMA01 DNA aptamer binding to (A) C4-2 cells; (B) LNCaP cells; (C)PC3 cells. (D) Binding of the A10-3 RNA aptamer to C4-2 cells. Live cells were incubated in PBS with 1×10^−6 M Rhodamine-conjugated aptamer for 2 h at room temperature. Cells were fixed with 3.7% formaldehyde for 2 min prior to visualization using an Olympus inverted microscope.
FIG. 3. Fluorescence microscopy images of (A) a monomeric aptamer conjugate of PSMA01 with a dT16 tail; (B) a dimeric aptamer complex consisting of 1:1 ratio of monomeric PSMA01 conjugates with dA16 and dT16 tails; (C) the J591 mAb. All images were obtained using live C4-2 cells. For (A) and (B) cells were prepared as described in FIG. 4. […]
We have has formed an affinity matrix using recombinant PSMA expressed from baculovirus. […] Protein purity was determined by gel electrophoresis and the identity of the protein was confirmed by Western blotting and mass spectrometry. […] The ssDNA product was analyzed by gel electrophoresis and quantified by UV absorption. […] DNA sequences were determined from individual clones at the core DNA sequencing facility of the CCCWFU. […] These sequences were also shown using fluorescence microscopy to bind selectively to PSMA-expressing prostate cancer cells (LNCaP, C4-2) relative to PC3 cells. […]

Another data set relates to LNCaP cells. As to the kind of experiment: Fluorescence microscopy of fluorescently-labeled aptamer on live cells. The data set is classed as cell-based. Particulars: PSMA+ cells, 2 h, room temperature. On the procedure: as §1
(§2) In these studies, live (non-fixed cells) cells were incubated in the presence of fluorescently-labeled aptamer for 2 h at room temperature. In these studies, C4-2 and LNCaP cells were used to evaluate binding to PSMA+ cells while PC3 cells were used as a PSMA− negative control.

The subject of data set [3] is PC3 cells. As to the kind of experiment: Fluorescence microscopy of fluorescently-labeled aptamer on live cells (PSMA− negative control). The data set is classed as cell-based. The following applies: 2 h, room temperature. As to the method: as §1, §2
In data set [4] the test system is C4-2 cells. In words: Flow cytometry of binding of fluorescently labeled aptamers and dimeric aptamer complexes. The data set is classed as cell-based. The following applies: FIG. 6; Quasar 570 / Quasar 670 fluorescence. As to the method: FIG. 6. Flow cytometry evaluation of the binding of fluorescently labeled aptamers and dimeric aptamer complexes with and without flexible linkers to C4-2 cells. Aptamer labeling with Quasar 570 and Quasar 670 was done as described in FIG. 8.
The relative binding of the PSMA01 DNA aptamer in monomeric form as well as in dimeric form with and without flexible linkers was also evaluated towards C4-2 cells using flow cytometry. Cells were treated in the same manner as described for the confocal microscopy experiments and were detached using an enzyme-free cell-dissociation buffer (Invitrogen). Cells were analyzed using a BD FACSCanto flow cytometry system and the data were analyzed using BD FACSDiva software (BD Biosciences, San Jose, Calif.).
On the technique in general: A flow cytometer gives signals particle by particle.

Turning to `O=c1[nH]cc(F)c(=O)[nH]1` [5FU, 5-fluorouracil], the “tumor growth relative to control” value in the data set on PC3 xenografts (FdUMP[10] 150 mg/kg) was “did not reduce tumor growth rates relative to control”. In addition, the “tolerability / body weight at administered dose” value in the data set on PC3 xenografts (mouse, in vivo) is on record as “lost weight compared to the controls”.

FdUMP[10]: in the data set on PC3 xenografts (FdUMP[10] 150 mg/kg), the “tumor growth relative to control” value is listed as “significantly reduced tumor growth relative to control”. For the same compound, the “tolerability / body weight at administered dose” value in the data set with PC3 xenografts (i.v. 1× per week, FdUMP[10] 150 mg/kg, 5FU 100 mg/kg (maximum tolerated dose)) is “well-tolerated”. Besides, the “relative sensitivity of PC3 versus C4-2 cells to activated FPs” value in the data set on PC3 cells [1] is given as “PC3 cells are more sensitive”.

For “PSMA01: DNA aptamer to PSMA, 5′-GCGTTTTCGCTTTTGCGTTTTGGGTCATCTGCTTACGATAGCAATCGT (SEQ ID NO: 1) (DNA, backbone and methylation of C not given here; further chemistry not fully specified)”, the “internalization into PSMA+ cells” value with C4-2 cells [2] (C4-2 and LNCaP cells, incubation at room temperature or 37° C.) is “Neither our PSMA-01 DNA aptamer nor the A10-3 aptamer were internalized into PSMA+ cells to any significant extent”. Also, the “binding to C4-2 cells” value with C4-2 cells [2] (PSMA+ cells, live cells, 1×10^−6 M Rhodamine-conjugated aptamer, 2 h, room temperature) is reported as “selective binding”. Besides, the “binding to LNCaP cells” value with LNCaP cells was “selective binding”. In addition, the “binding to PC3 cells” value with PC3 cells [3] is given as “no binding”. Besides, the “mean fluorescence intensity (cell binding)” value in the data set on C4-2 cells [4] was “right-shifted relative to background”.
